Experimental findings from patent publication US20090209538A1, “THERAPEUTIC SUBSTITUTED LACTAMS” (ALLERGAN, INC., priority 2008, published 2009) are described below.

This assay relates to patients having glaucoma (lashes and adjacent hairs). The assay can be described thus: Clinical observation of lash and hair growth in glaucoma patients treated in one eye. The format is in vivo, humans. Conditions: glaucoma patients treated unilaterally; treated versus control areas. An excerpt:
In the course of treating patients having glaucoma, treatment may only be appropriate in one eye. […] The lash appearance on the lids of the treated eyes would have appeared quite attractive if it represented a bilateral phenomenon. As a result of its asymmetric nature, the long lashes on one side could be construed as disturbing from a cosmetic standpoint. A systemic examination was preformed as a result of the asymmetric phenomenon. It soon became apparent that this altered appearance was not an isolated finding. […] Definite differences could be identified to varying degrees in the lashes and adjacent hairs of all patients who were taking the drug on a unilateral basis for longer than 6 months.
The changes in the lashes were apparent on gross inspection in several patients once attention was focused on the issue. In those with light colored hair and lashes, the differences were only seen easily with the aid of the high magnification and lighting capabilities of the slit lamp biomicroscope. In the course of glaucoma follow-up examination, attention is generally immediately focused on the eye itself. As a result of the high power magnification needed only one eye is seen at a time and the eye is seen at a high enough power that the lashes are not in focus. […]

Entries after “also recorded” stand apart in the source; their conditions may differ.

`CCNC(=O)CCC/C=C\C[C@@H]1[C@@H](/C=C/[C@@H](O)CCc2ccccc2)[C@H](O)C[C@@H]1O` [bimatoprost]: the “lash / hair growth in treated eye versus non-treated eye” value is “longer, thicker, and fuller in the treated eye than in the non-treated eye; also recorded: hair growth is stimulated”.
